From ChEMBL document CHEMBL4177730, “Rational modification of semaxanib and sunitinib for developing a tumor growth inhibitor targeting ATP binding site of tyrosine kinase” (2018)
Active and inactive are the calls of the source. The rule behind the calls is not given here.

Experiments:
HCT-15 = assay: Growth inhibition of human HCT15 cells at 10 uM after 48 hrs by sulforhodamine B assay; type: functional, cell-based
NCI-H23 = assay: Growth inhibition of human NCI-H23 cells at 10 uM after 48 hrs by sulforhodamine B assay; type: functional, cell-based
OVCAR-5 = assay: Growth inhibition of human OVCAR5 cells at 10 uM after 48 hrs by sulforhodamine B assay; type: functional, cell-based
Hs-578T = assay: Growth inhibition of human Hs 578T cells at 10 uM after 48 hrs by sulforhodamine B assay; type: functional, cell-based
Malme-3M [1] = assay: Growth inhibition of human MALME-3M cells at 10 uM after 48 hrs by sulforhodamine B assay; type: functional, cell-based
K562 = assay: Growth inhibition of human K562 cells at 10 uM after 48 hrs by sulforhodamine B assay; type: functional, cell-based
BT-549 [2] = assay: Growth inhibition of human BT549 cells at 10 uM after 48 hrs by sulforhodamine B assay; type: functional, cell-based
IGROV-1 = assay: Growth inhibition of human IGROV1 cells at 10 uM after 48 hrs by sulforhodamine B assay; type: functional, cell-based
SF-268 = assay: Growth inhibition of human SF268 cells after 48 hrs by sulforhodamine B assay; type: functional; conditions: SF-268, 48 h
NCI-H460 [3] = assay: Growth inhibition of human NCI-H460 cells after 48 hrs by sulforhodamine B assay; type: functional; conditions: NCI-H460, 48 h
NCI/ADR-RES = assay: Growth inhibition of human NCI-ADR-RES cells at 10 uM after 48 hrs by sulforhodamine B assay; type: functional, cell-based
SK-OV-3 = assay: Growth inhibition of human SKOV3 cells after 48 hrs by sulforhodamine B assay; type: functional; conditions: SK-OV-3, 48 h
SK-MEL-28 = assay: Growth inhibition of human SK-MEL-28 cells at 10 uM after 48 hrs by sulforhodamine B assay; type: functional, cell-based
SF-295 = assay: Growth inhibition of human SF295 cells after 48 hrs by sulforhodamine B assay; type: functional; conditions: SF-295, 48 h
T47D = assay: Growth inhibition of human T47D cells after 48 hrs by sulforhodamine B assay; type: functional
HL-60(TB) = assay: Growth inhibition of human HL-60(TB) cells after 48 hrs by sulforhodamine B assay; type: functional; conditions: HL-60, 48 h
SN12C = assay: Growth inhibition of human SN12C cells after 48 hrs by sulforhodamine B assay; type: functional
UO-31 = assay: Growth inhibition of human UO31 cells at 10 uM after 48 hrs by sulforhodamine B assay; type: functional, cell-based
MDA-MB-468 = assay: Growth inhibition of human MDA-MB-468 cells after 48 hrs by sulforhodamine B assay; type: functional; conditions: MDA-MB-468, 48 h
A498 = assay: Growth inhibition of human A498 cells at 10 uM after 48 hrs by sulforhodamine B assay; type: functional, cell-based
MOLT-4 = assay: Growth inhibition of human MOLT4 cells after 48 hrs by sulforhodamine B assay; type: functional; conditions: MOLT-4, 48 h
MDA-MB-435 = assay: Growth inhibition of human MDA-MB-435 cells after 48 hrs by sulforhodamine B assay; type: functional; conditions: MDA-MB-435, 48 h
786-0 = assay: Growth inhibition of human 786-0 cells at 10 uM after 48 hrs by sulforhodamine B assay; type: functional, cell-based
HOP-92 [4] = assay: Growth inhibition of human HOP92 cells after 48 hrs by sulforhodamine B assay; type: functional; conditions: HOP-92, 48 h
NCI-H322M = assay: Growth inhibition of human NCI-H322M cells at 10 uM after 48 hrs by sulforhodamine B assay; type: functional, cell-based
ACHN = assay: Growth inhibition of human ACHN cells at 10 uM after 48 hrs by sulforhodamine B assay; type: functional, cell-based
KM12 = assay: Growth inhibition of human KM12 cells after 48 hrs by sulforhodamine B assay; type: functional; conditions: KM12, 48 h
SNB-19 = assay: Growth inhibition of human SNB19 cells at 10 uM after 48 hrs by sulforhodamine B assay; type: functional, cell-based
A549 = assay: Growth inhibition of human A549/ATCC cells after 48 hrs by sulforhodamine B assay; type: functional; conditions: A549, 48 h
HOP-92 [5] = assay: Growth inhibition of human HOP92 cells at 10 uM after 48 hrs by sulforhodamine B assay; type: functional, cell-based
PC-3 = assay: Growth inhibition of human PC3 cells after 48 hrs by sulforhodamine B assay; type: functional; conditions: PC-3, 48 h
RXF 393 = assay: Growth inhibition of human RXF393 cells at 10 uM after 48 hrs by sulforhodamine B assay; type: functional, cell-based
NCI-H460 [6] = assay: Growth inhibition of human NCI-H460 cells at 10 uM after 48 hrs by sulforhodamine B assay; type: functional, cell-based
CCRF-CEM = assay: Growth inhibition of human CCRF-CEM cells at 10 uM after 48 hrs by sulforhodamine B assay; type: functional, cell-based
RPMI-8226 = assay: Growth inhibition of human RPMI8226 cells at 10 uM after 48 hrs by sulforhodamine B assay; type: functional, cell-based
Malme-3M [7] = assay: Growth inhibition of human MALME-3M cells after 48 hrs by sulforhodamine B assay; type: functional
BT-549 [8] = assay: Growth inhibition of human BT549 cells after 48 hrs by sulforhodamine B assay; type: functional; conditions: BT-549, 48 h
HCC 2998 = assay: Growth inhibition of human HCC2998 cells after 48 hrs by sulforhodamine B assay; type: functional; conditions: HCC 2998, 48 h
LOX IMVI = assay: Growth inhibition of human LOXIMVI cells at 10 uM after 48 hrs by sulforhodamine B assay; type: functional, cell-based
COLO 205 = assay: Growth inhibition of human COLO205 cells at 10 uM after 48 hrs by sulforhodamine B assay; type: functional, cell-based
OVCAR-3 = assay: Growth inhibition of human OVCAR3 cells after 48 hrs by sulforhodamine B assay; type: functional; conditions: OVCAR-3, 48 h
[9] = read-out: LC50 (the source's name)

## O=C1/C(=C\c2cccn2Cc2ccccc2)c2ccccc2N1c1c(Cl)cccc1Cl
HCT-15
  growth inhibition (GI): Active
NCI-H23
  growth inhibition (GI): Active
OVCAR-5
  growth inhibition (GI): Active
Hs-578T
  growth inhibition (GI): Active
Malme-3M [1]
  growth inhibition (GI): Active
K562
  growth inhibition (GI): Active
BT-549 [2]
  growth inhibition (GI): Active
IGROV-1
  growth inhibition (GI): Active
SF-268
  GI50: > 100 µM
  TGI: > 100 µM
SF-268; [9]
  CC50: > 100 µM
NCI-H460 [3]
  GI50: 4.16 µM
  TGI: > 100 µM
NCI-H460 [3]; [9]
  CC50: > 100 µM
NCI/ADR-RES
  growth inhibition (GI): Active
SK-OV-3
  GI50: > 100 µM
  TGI: > 100 µM
SK-OV-3; [9]
  CC50: > 100 µM
SK-MEL-28
  growth inhibition (GI): Active
SF-295
  GI50: > 100 µM
  TGI: > 100 µM
SF-295; [9]
  CC50: > 100 µM
T47D
  GI50: 0.21 µM
  TGI: 1.86 µM
T47D; [9]
  CC50: > 100 µM
HL-60(TB)
  GI50: > 100 µM
  TGI: > 100 µM
HL-60(TB); [9]
  CC50: > 100 µM
SN12C
  GI50: > 100 µM
  TGI: > 100 µM
SN12C; [9]
  CC50: > 100 µM
UO-31
  growth inhibition (GI): Active
MDA-MB-468
  GI50: 0.063 µM
  TGI: 0.28 µM
MDA-MB-468; [9]
  CC50: 1.38 µM
A498
  growth inhibition (GI): Active
MOLT-4
  GI50: > 100 µM
  TGI: > 100 µM
MOLT-4; [9]
  CC50: > 100 µM
MDA-MB-435
  GI50: > 100 µM
  TGI: > 100 µM
MDA-MB-435; [9]
  CC50: > 100 µM
786-0
  growth inhibition (GI): Active
HOP-92 [4]
  GI50: 0.97 µM
  TGI: 17.8 µM
HOP-92 [4]; [9]
  CC50: > 100 µM
NCI-H322M
  growth inhibition (GI): Active
ACHN
  growth inhibition (GI): Active
KM12
  GI50: 0.38 µM
  TGI: > 100 µM
KM12; [9]
  CC50: > 100 µM
SNB-19
  growth inhibition (GI): Active
A549
  GI50: 8.31 µM
  TGI: > 100 µM
A549; [9]
  CC50: > 100 µM
HOP-92 [5]
  growth inhibition (GI): Active
PC-3
  GI50: 6.91 µM
  TGI: > 100 µM
PC-3; [9]
  CC50: > 100 µM
RXF 393
  growth inhibition (GI): Active
NCI-H460 [6]
  growth inhibition (GI): Active
CCRF-CEM
  growth inhibition (GI): Active
RPMI-8226
  growth inhibition (GI): Active
Malme-3M [7]
  GI50: 3.16 µM
  TGI: > 100 µM
Malme-3M [7]; [9]
  CC50: > 100 µM
BT-549 [8]
  GI50: > 100 µM
  TGI: > 100 µM
BT-549 [8]; [9]
  CC50: > 100 µM
HCC 2998
  GI50: 0.87 µM
  TGI: > 100 µM
HCC 2998; [9]
  CC50: > 100 µM
LOX IMVI
  growth inhibition (GI): Active
COLO 205
  growth inhibition (GI): Active
OVCAR-3
  GI50: 0.74 µM
  TGI: > 100 µM
OVCAR-3; [9]
  CC50: > 100 µM
